Measured values from paper PMC10877733, “Discovery and Characterization of VU0542270, the First Selective Inhibitor of Vascular Kir6.1/SUR2B KATP Channels” (Molecular Pharmacology, 2024).

Key:
channels containing SUR1 = assay: Thallium flux, Kir6.1 or Kir6.2 co-expressed with SUR1 in transfected HEK-293 cells; assay type: cell-based; conditions: 3 µM, Fig. 4D
Excerpt: The pcDNA3.1-SUR2B plasmid was generously provided by Dr. Colin Nichols (Washington University). The pcDNA5/TO-Kir6.1 plasmid was synthesized by GenScript. Stably transfected tetracycline-regulated expression human embryonic kidney-293 (T-Rex-HEK293) cells expressing both plasmids were generated by cotransfecting cells with Lipofectamine LTX followed by antibiotic selection and clonal selection using the thallium flux assay described below. Monoclonal lines expressing robust pinacidil-activated thallium flux were selected for high KATP channel activity. T-Rex-HEK293 cells expressing Kir6.2/SUR1 were created as described previously ([Raphemot et al., 2014]). The cell culture media contained Dulbecco’s modified Eagle’s medium (Gibco, 11965-092) supplied with heat-inactivated FBS (bio-techne, Minneapolis, MN S11150H,10%), Blasticidine HCl (Gibco, A11139-03, 10 ug/mL), Penicillin-Streptomycin (Gibco, 15140-122, 2 mM), G418 Sulfate (CORNING, Corning, NY, 30-234-CR, 1 mg/mL), and Hygromycin B (Invitrogen, Carlsbad, CA, 10687-010, 250 ug/mL). […]
Quantitative thallium flux assays of Kir6.1/SUR2B activity were performed essentially as described previously for Kir6.2/SUR1 ([Raphemot et al., 2014]; [Kharade et al., 2019]). […] Dye-loaded cells were washed with assay buffer and transferred to a Panoptic Kinetic Imaging Plate Reader (Wavefront Bioscience, Franklin, TN). […]

[1] = Plasma binding by equilibrium dialysis, mouse; assay type: in vitro ADME; conditions: equilibrium dialysis 6 hours 37°C, read-out: Fu, plasma (mouse)
Protocol: Determination of VU0542270 fraction unbound (fu) in plasma from mouse, rat, and human was conducted in vitro via equilibrium dialysis using high-throughput dialysis (HTD) membrane plates. Dialysis membranes (four paired strips per HTD assay) were hydrated as described by the manufacturer and inserted into the HTD plate, which was assembled and prepared for sample addition by the dispensing of blank buffer [Delbecco’s phosphate buffered saline (DPBS), 100 µL/well] into the “top half” of each membrane-split well. VU0542270 was diluted into plasma from each species (5 µM final concentration), which was aliquoted in triplicate to the “bottom half” of the prepared HTD plate wells. The HTD plate was sealed and incubated for 6 hours at 37°C. Following incubation, each well (both top and bottom halves) was transferred (20 µL) to the corresponding well of a 96-shallow-well (V-bottom) plate. […]
fu was calculated as (analyte to IS mass spectrometry (MS) peak area ratio from Trans-buffer side)/(analyte to IS MS peak area ratio from Cis-plasma side). Mean values for each species were calculated from three replicates.

[2] = Brain homogenate binding by equilibrium dialysis, rat; assay type: in vitro ADME; conditions: read-out: Fu, brain (rat)
Protocol: Determination of VU0542270 fu in […] from mouse and rat was conducted using the same methodology and procedure as described for plasma protein binding assay with the following modifications: 1) a final compound concentration of 1 μM was used, and 2) naïve rat brains were homogenized in DPBS (1:3 composition of brain:DPBS, w/w) using a Mini-Bead Beater machine to obtain brain homogenate.
The diluted fraction unbound (fu2) in brain was calculated as (analyte to IS MS peak area ratio from Trans-buffer side)/(analyte to IS MS peak area ratio from Cis-brain homogenate side). Undiluted fraction unbound for the brain was calculated using the following equation: [drawing 1]
Mean values for each species were calculated from three replicates.

SMILES: Cc1nc(-c2cccs2)sc1CNC(=O)Nc1cccs1 [VU0542270]
- inhibition of channels containing SUR1 (channels containing SUR1): not channels containing SUR1
- fraction unbound at 6 h, 5 µM [1]: 0.01
- fraction unbound at 6 h, 1 µM [2]: 0.02
